Measured values from patent US20220041641A1, “QUATERNARY AMMONIUM SALTS AS INHIBITORS OF TRIMETHYLAMINE PRODUCTION” (Senda Biosciences, Inc., priority 2018, published 2022).

Experiments:
[1] = format: in vitro ADME; details: simulated gi fluid, 1 µM, pH 6.7
Description: This assay was used to assess the stability of a conjugate in a small intestine.
Phosphate buffer was prepared by dissolving 0.42 g of sodium hydroxide pellets and 3.95 g of monobasic sodium phosphate monohydrate and 6.19 g of sodium chloride in ultrapure water (MilliQ®, Millipore Sigma, Darmstadt, Germany). The pH was adjusted to 6.7 using aq. HCl and aq. NaOH, as necessary, and the solution was diluted with ultrapure water to produce 1 L of the pH 6.7 buffer.
112 mg FaSSIF powder (Biorelevant™, London, UK) was dissolved in 50 mL of the pH 6.7 buffer. 2 to 3 mL of the resulting solution were then added to 500 mg pancreatin (Millipore Sigma, Darmstadt, Germany). The resulting mixture was agitated by finger tapping the vessel containing the mixture until milky suspension formed. At this time, the remainder of the 50 mL FaSSiF/pH 6.7 buffer solution was added. The resulting suspension was flipped upside down 10 times to produce SIF, which was used fresh.
(§1) Test compounds were dissolved in DMSO stock to 1 mM. An aliquot of the DMSO stock solution was removed and diluted in the SIF media in 15 mL falcon tubes to produce a mixture with a tested compound concentration of 1 μM. A 1 mL aliquot was immediately removed and diluted once with 1 volume of acetonitrile for T0 timepoint. The mixture was sealed and agitated at 37° C. in an incubator. Aliquots (1 mL) were removed at regular intervals and immediately quenched by the addition of 1 volume of acetonitrile. The resulting samples were analyzed by LCMS to determine degradation rates.

[2] = format: in vitro ADME; details: simulated gi fluid, 1 µM, pH 1.6
Description: This assay was used to assess the stability of a conjugate in a stomach.
Medium was prepared by dissolving 2 g of sodium chloride in 0.6 L in ultrapure water (MilliQ®, Millipore Sigma, Darmstadt, Germany). The pH was adjusted to 1.6 with 1N hydrochloric acid, and the volume was then adjusted to 1 L with purified water.
60 mg FaSSIF powder (Biorelevant™, London, UK) were dissolved in 500 mL buffer (above). Pepsin was added (0.1 mg/mL) (Millipore Sigma, Darmstadt, Germany), and the solution was stirred. The resulting SGF media were used fresh for each experiment.
as §1, with “SGF Media” for “SIF media”, “generate” for “produce”, “total” for “mixture with a tested”, “mixed” for “agitated”, “rates in SGF.” for “rates.”

[3] = Pharmacokinetic study of colon contents and plasma after oral dose of conjugate; format: in vivo, male C57B3L/6 mice; details: mouse, in vivo, po
Description: To confirm that the active agent component of the conjugate is released in the gastrointestinal tract, a pharmacokinetic study was conducted in male C57B3L/6 mice examining conjugate and active agent of concentrations in both the colon contents and plasma after oral dose of conjugate. Conjugate and active agent of were quantified by LCMS at 0 (pre-dose), 0.25, 0.5, 1, 2, 4, 6, 8, 12, and 24 hours post-dose of compound.

[4] = in vivo; set-up: species or system Sprague-Dawley rats; details: Sprague-Dawley, rat
[5] = biological target: CutC from Proteus mirabilis (Proteus mirabilis, UniProt B4EYG1); assay: Cell-based assay for TMA production from a native producer (P. mirabilis); details: d9-TMA from 1 mM d9-choline, 5 h, 37° C.; value 10 given when no fit or % TMA remaining at 10 μM higher than 15%; read-out: Average IC50 Whole cell P. mirabilis
Chain of CutC from Proteus mirabilis (B4EYG1 entry or part of it): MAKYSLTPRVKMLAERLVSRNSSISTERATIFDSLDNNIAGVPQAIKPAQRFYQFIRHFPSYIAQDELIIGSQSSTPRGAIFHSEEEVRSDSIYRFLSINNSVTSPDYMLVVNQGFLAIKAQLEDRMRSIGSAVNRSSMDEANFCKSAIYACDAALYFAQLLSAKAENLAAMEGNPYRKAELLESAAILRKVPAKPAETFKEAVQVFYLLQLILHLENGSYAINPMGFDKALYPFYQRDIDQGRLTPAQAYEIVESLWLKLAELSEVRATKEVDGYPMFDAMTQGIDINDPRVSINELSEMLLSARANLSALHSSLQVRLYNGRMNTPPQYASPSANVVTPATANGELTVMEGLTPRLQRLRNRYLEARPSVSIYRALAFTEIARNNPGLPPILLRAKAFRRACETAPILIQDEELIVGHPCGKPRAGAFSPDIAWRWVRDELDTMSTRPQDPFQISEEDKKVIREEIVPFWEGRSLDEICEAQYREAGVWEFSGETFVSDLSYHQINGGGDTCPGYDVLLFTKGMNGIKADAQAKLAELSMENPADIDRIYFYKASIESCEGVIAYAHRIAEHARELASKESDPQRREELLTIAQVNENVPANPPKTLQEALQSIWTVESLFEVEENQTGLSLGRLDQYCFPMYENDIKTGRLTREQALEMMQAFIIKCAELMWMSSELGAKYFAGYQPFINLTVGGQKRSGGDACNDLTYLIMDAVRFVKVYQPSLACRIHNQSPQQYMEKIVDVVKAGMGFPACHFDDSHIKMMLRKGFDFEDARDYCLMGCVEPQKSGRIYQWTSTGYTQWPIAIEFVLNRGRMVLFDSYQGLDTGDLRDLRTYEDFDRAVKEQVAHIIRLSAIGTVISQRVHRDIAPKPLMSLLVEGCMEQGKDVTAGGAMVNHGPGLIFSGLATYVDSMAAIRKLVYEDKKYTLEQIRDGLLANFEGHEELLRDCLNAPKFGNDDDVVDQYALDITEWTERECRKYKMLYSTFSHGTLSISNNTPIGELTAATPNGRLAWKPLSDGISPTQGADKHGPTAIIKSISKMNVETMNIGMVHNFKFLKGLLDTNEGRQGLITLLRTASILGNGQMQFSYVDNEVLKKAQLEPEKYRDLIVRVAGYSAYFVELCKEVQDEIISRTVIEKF
Chain of CutC from Proteus mirabilis (B4EYG0 entry or part of it, further chain): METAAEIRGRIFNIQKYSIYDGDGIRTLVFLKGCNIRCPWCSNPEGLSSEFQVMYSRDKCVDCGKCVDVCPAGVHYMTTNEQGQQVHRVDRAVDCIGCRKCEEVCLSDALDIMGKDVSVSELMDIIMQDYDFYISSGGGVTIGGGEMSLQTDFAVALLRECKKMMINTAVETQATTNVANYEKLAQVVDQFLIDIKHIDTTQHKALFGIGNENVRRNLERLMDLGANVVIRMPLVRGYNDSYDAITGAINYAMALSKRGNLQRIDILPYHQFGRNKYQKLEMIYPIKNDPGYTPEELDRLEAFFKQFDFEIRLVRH
Outline: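 Overnight anaerobic cultures of P. mirabilis or C. sporogenes, grown in BHI with 1 mM choline, were diluted and given 1 mM (trimethyl-d9)-choline plus compound at 10 μM final. After 5 h at 37° C., d9-TMA was quantified by LCMS.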

[6] = system: enzymatic activity in fecal matter; assay: Inhibition of enzymatic activity in fecal matter; format: cell-based; details: d9-choline 1 mM, 16 hours at 37° C., anaerobic, d9-TMA by LCMS
Description: Inhibition of enzymatic activity in fecal matter was determined by adding a substrate (d9-choline, 1 mM final concentration) and a compound in a range of concentrations in order to determine an IC50. After incubation for a designated 16 hours at 37° C. in anaerobic conditions, samples were be prepared for LCMS analysis, and the amount of d9-TMA produced was determined using LCMS analysis as in the Examples above.

CC(=O)OC[C@H]1O[C@@H](OCC[N+](C)(C)C2CC2)[C@H](OC(C)=O)[C@@H](OC(C)=O)[C@@H]1OC(C)=O.[I-] [Compound 80, N,N-dimethyl-N-(2-{[(3R,4S,5R,6R)-3,4,5-tris(acetyloxy)-6-[(acetyloxy)methyl]oxan-2-yl]oxy}ethyl)cyclopropanaminium Iodide]
Assay 2- FaSSIF Stability: % Remaining at 4 hr [1]: 99.34% | Assay 1- FaSSGF Stability: % Remaining at 1 hr [2]: 145.32% | Plasma Cmax [3]: Not | Cmax ([4]; iv, 1 mg/kg): 7.68 µM | IV Cmax ([4]; iv, 1 mg/kg): 0 nM | % F ([4]; po, 10 mg/kg): 1.5% | bioavailability ([4]; po, 10 mg/kg): 0.68% | IC50 [5]: ≥ 10000 nM | IC50 [6]: 380 nM
